In data set [1] the test system is patient with intractable post-herpetic trigeminal neuralgia. Briefly: Ketamine infusion with clonidine and MgSO4 in a patient with post-herpetic trigeminal neuralgia. It is filed as in vivo, human. The text has this: A person had suffered for about 1.5 years from intractable post-herpetic trigeminal neuralgia (commonly known as shingles).
A further data set deals with depressed patients. To be noted: single one-time dosage; cited from earlier work.
Data set [2] concerns patients with CRPS-1 (RSD). Briefly: Sustained ketamine infusion (with clonidine/magnesium) in patients with CRPS-1 (RSD) chronic neuropathic pain. The text has this: One of the coinventors herein (Correll, a physician) was involved in those tests, in Australia, using ketamine “mono-therapy” (i.e., without also administering a safener drug, such as clonidine).
In response, the anesthesiologist began to administer clonidine, a standard and conventional treatment for controlling high blood pressure. […] The anesthesiologist then began researching the scientific, medical, and patent literature on the subject, and soon discovered prior work done by the third inventor (Olney, a neurology researcher who specializes in animal models) on the subject of safener drugs that can reduce or prevent the toxic side effects of NMDA blocker drugs such as ketamine.
A person had suffered for roughly 9 years from intractable chronic pain, diagnosed as CRPS-1 and/or RSD, in their right leg and foot. This pain apparently was related to circulatory problems in their right leg. […] The contents of that article are incorporated herein by reference.
They were treated with […] of MgSO4 (infused in 5% dextrose in water, or D5W) and 0.1 mg clonidine (oral tablet) prior to ketamine. […] A second magnesium infusion was performed at 24 hr.

Data set [3] relates to patients with compulsive eating disorders (mainly anorexic). The conditions noted are these: 2 to 9 infusions, 10-hour infusion period, 20 mg per hour; cited from earlier work.

Consider three molecules from US20050222270A1, “Prolonged administration of NMDA antagonist drug and safener drug to create improved stable neural homeostasis” (priority 2004, published 2005).

On to `CNC1(c2ccccc2Cl)CCCCC1=O` (stereo not drawn) [ketamine], for which the “pain status at last contact” value in data set [1] (Example 3, about 12 months after treatment, 48 hours ketamine infusion, clonidine started during first day, 2 x 2 g MgSO4) was “still largely abated”; in data set [2] (Example 2, about 12 months after treatment) it was “still pain-free”. Further, the effect on depression result in the data set on depressed patients is “transient relief of depression”. Also, the “time patient remained pain-free after ketamine treatment” value in data set [2] (Example 1, person, 9-year CRPS-1/RSD in right leg and foot) is on record as “roughly 18 months”. Also, the “time until CNS side effects (slurring of speech) resolved” value in data set [2] (Example 2, ketamine infusion increased to 20 mg/hr) was at most 24 h. The “time of ketamine infusion until essentially complete relief from pain” value in data set [2] (Example 2, person, ketamine 10-20 mg/hr i.v. with clonidine 0.1 mg every 12 hours and MgSO4) fell in the range of 2 to 3 days. In addition, the “patients with prolonged remission of compulsive thoughts about food, diet, and weight” value in data set [3] is listed as “Nine of the 15”.

Consider `Clc1cccc(Cl)c1N=C1NCCN1` [clonidine], for which the “effect of adding clonidine to ketamine infusion on pain” value in data set [2] (patient in ketamine mono-therapy test, clonidine given for rising blood pressure) is “substantial improvement in their pain reduction”.

Consider `O=S(=O)([O-])[O-].[Mg+2]` [MgSO4, magnesium sulfate], for which the “effect of magnesium coadministered along with ketamine on pain” value in data set [1] (Example 3, 2 g MgSO4 prior to and 2 g later in ketamine infusion) is “synergistic pain-reducing effect”.
